Measurements published in ChEMBL document CHEMBL4651402, “Screening of ~5500 FDA-approved drugs and clinical candidates for anti-SARS-CoV-2 activity” (2021).

Tested on: SARS-CoV-2
Test: microbe, parasite or virus in culture
Conditions: Severe acute respiratory syndrome coronavirus 2, Vero C1008, 48 h

Compound	IC50 [µM]	IC50 (read-out: pIC50 (converted)) [µM]
CCN1C(=CC=CC=Cc2sc3ccccc3[n+]2CC)Sc2ccccc21 [DITHIAZANINE]	> 20	> 20
CCN(CC)C(=S)S [DITIOCARB]	> 20	> 20
CC(CN1CCN(CCOCCO)CC1)CN1c2ccccc2Sc2ccccc21 (centres undefined) [DIXYRAZINE]	> 20	> 20
C[C@]12N[C@H](Cc3ccccc31)c1ccccc12 [DIZOCILPINE]	> 20	> 20
c1cncc(C2CCCCN2)c1 (stereo not drawn) [DL-ANABASINE]	> 20	> 20
CC(CCc1ccc(O)cc1)NCCc1ccc(O)c(O)c1 (centres undefined) [DOBUTAMINE]	> 20	> 20
CC1=C(C)C(=O)C(CCCCC#CCCCC#CCO)=C(C)C1=O [DOCEBENONE]	> 20	> 20
CC/C=C\C/C=C\C/C=C\C/C=C\C/C=C\C/C=C\CCC(=O)O [DOCONEXENT]	> 20	> 20
CCCCCCCCCCCC(=O)O [DODECANOATE]	> 20	> 20
CN(CCOc1ccc(NS(C)(=O)=O)cc1)CCc1ccc(NS(C)(=O)=O)cc1 [DOFETILIDE]	> 20	> 20
C[C@@H]1CCO[C@H]2Cn3cc(C(=O)NCc4ccc(F)cc4F)c(=O)c(O)c3C(=O)N12 [DOLUTEGRAVIR]	> 20	> 20
CCCCCCCCCCCC[N+](C)(C)CCOc1ccccc1 [DOMIPHEN]	> 20	> 20
O=c1[nH]c2ccccc2n1CCCN1CCC(n2c(=O)[nH]c3cc(Cl)ccc32)CC1 [DOMPERIDONE]	> 20	> 20
COc1cc(CC(C)N)c(OC)cc1C (centres undefined) [DOM]	> 20	> 20
COc1cc2c(cc1OC)C(=O)C(CC1CCN(Cc3ccccc3)CC1)C2 (centres undefined) [DONEPEZIL]	> 20	> 20
O=C(NCCc1ccc(O)c(O)c1)C12CC3CC(CC(C3)C1)C2 [DOPAMANTINE]	> 20	> 20
NCCc1ccc(O)c(O)c1 [DOPAMINE]	> 20	> 20
Cc1ccc(-n2nc(C(C)(C)C)cc2NC(=O)Nc2ccc(OCCN3CCOCC3)c3ccccc23)cc1 [DORAMAPIMOD]	> 20	> 20
CCN[C@H]1C[C@H](C)S(=O)(=O)c2sc(S(N)(=O)=O)cc21 [DORZOLAMIDE]	> 20	> 20
CCN1CC(CCN2CCOCC2)C(c2ccccc2)(c2ccccc2)C1=O (centres undefined) [DOXAPRAM]	> 20	> 20
COc1cc2nc(N3CCN(C(=O)C4COc5ccccc5O4)CC3)nc(N)c2cc1OC (centres undefined) [DOXAZOSIN]	> 20	> 20
Nc1ccn([C@H]2C[C@H](O)[C@@H](CO)O2)c(=O)n1 [DOXECITINE]	> 20	> 20
Cn1c(=O)c2c(ncn2CC2OCCO2)n(C)c1=O [DOXOFYLLINE]	> 20	> 20
CN(C)[C@@H](c1cccnc1)C1COCOC1 [DOXPICOMINE]	> 20	> 20
Cc1cn([C@H]2C[C@H](O)[C@@H](CO)O2)c(=O)[nH]c1=O [DOXRIBTIMINE]	> 20	> 20
C[C@H]1c2cccc(O)c2C(=O)C2=C(O)[C@]3(O)C(=O)C(C(N)=O)=C(O)[C@@H](N(C)C)[C@@H]3[C@@H](O)[C@@H]21 [DOXYCYCLINE]	> 20	> 20

Compound	IC50 [µM]	IC50 (read-out: pIC50 (converted)) [µM]
CN(C)CCOC(C)(c1ccccc1)c1ccccn1 (centres undefined) [DOXYLAMINE]	> 20	> 20
CCN(CC)CCOC(=O)C(c1ccccc1)C1CCCCC1 (centres undefined) [DROFENINE]	> 20	> 20
O=C(CCCN1CC=C(n2c(=O)[nH]c3ccccc32)CC1)c1ccc(F)cc1 [DROPERIDOL]	> 20	> 20
OCC(O)CN1CCN(c2ccccc2)CC1 (centres undefined) [DROPROPIZINE]	> 20	> 20
CCOc1ccc(/C=C2\NCCc3cc(OCC)c(OCC)cc32)cc1OCC [DROTAVERINE]	> 20	> 20
Cc1cc(Nc2ccc(S(F)(F)(F)(F)F)cc2)n2nc(C(C)(F)F)nc2n1 [DSM-265]	> 20	> 20
CN1CCN(Cc2ccc(Nc3ncc(Cl)c(Nc4ccccc4S(=O)(=O)N(C)C)n3)cc2)CC1 [DUBERMATINIB]	> 20	> 20
OC[C@H]1NC[C@H](O)[C@@H](O)[C@@H]1O [DUVOGLUSTAT]	> 20	> 20
CCCCOc1ccc(C(=O)CCN2CCCCC2)cc1 [DYCLONINE]	> 20	> 20
CC(=O)[C@H]1CC[C@H]2[C@@H]3C=CC4=CC(=O)CC[C@@]4(C)[C@@H]3CC[C@]12C [DYDROGESTERONE]	> 20	> 20
Cn1c(=O)c2c(ncn2CC(O)CO)n(C)c1=O (centres undefined) [DYPHYLLINE]	> 20	> 20
CCc1occc(=O)c1O [E637]	> 20	> 20
CN(C)CC/C=C1\c2ccccc2COc2ccccc21 [E-DOXEPIN]	> 20	> 20
CC(C)(C)c1ccc(C(=O)CCCN2CCC(OC(c3ccccc3)c3ccccc3)CC2)cc1 [EBASTINE]	> 20	> 20
O=c1c2ccccc2[se]n1-c1ccccc1 [EBSELEN]	> 20	> 20
CNC(=O)c1cccc(NCC(=O)NCCc2ccc(OC)c(OC)c2)c1 [ECABAPIDE]	> 20	> 20
Clc1ccc(COC(Cn2ccnc2)c2ccc(Cl)cc2Cl)cc1 (centres undefined) [ECONAZOLE]	> 20	> 20
CN1CCc2cc(Cl)c(O)cc2[C@H]2c3ccccc3CC[C@@H]21 [ECOPIPAM]	> 20	> 20
CC1=NN(c2ccccc2)C(=O)C1 [EDARAVONE]	> 20	> 20
C[C@@H]1CN(Cc2ncccn2)C[C@H]1c1nc2c(cnn2C2CCOCC2)c(=O)[nH]1 [EDELINONTRINE]	> 20	> 20
CC1(C)CC=C(c2nc(C3CC(C)(C)OC(C)(C)C3)ccc2NC(=O)c2nc(C#N)c[nH]2)CC1 [EDICOTINIB]	> 20	> 20
CCc1cn([C@H]2C[C@H](O)[C@@H](CO)O2)c(=O)[nH]c1=O [EDOXUDINE]	> 100	> 100
CC[N+](C)(C)c1cccc(O)c1 [EDROPHONIUM]	> 20	> 20
CCC1(C2=NCCN2)Cc2ccccc2O1 (centres undefined) [EFAROXAN]	> 20	> 20
NCCCC(N)(C(=O)O)C(F)F (centres undefined) [EFLORNITHINE]	> 20	> 20
CCOC(=O)COc1ccc2c(=O)cc(-c3ccccc3)oc2c1 [EFLOXATE]	> 20	> 20

Compound	IC50 [µM]	IC50 (read-out: pIC50 (converted)) [µM]
CSc1ccc(C(=O)/C=C/c2cc(C)c(OC(C)(C)C(=O)O)c(C)c2)cc1 [ELAFIBRANOR]	> 20	> 20
O=C(O)C[C@H](NC(=O)[C@@H]1CCCN(C(=O)CCC2CCNCC2)C1)c1cccnc1 [ELAROFIBAN]	> 20	> 20
O=C(OC(C(F)(F)F)C(F)(F)F)N1CCN(Cc2ccc(C(F)(F)F)cc2N2CCCC2)CC1 [ELCUBRAGISTAT]	> 20	> 20
CN(NC(=O)CC(=O)NN(C)C(=S)c1ccccc1)C(=S)c1ccccc1 [ELESCLOMOL]	> 20	> 20
OC(CN1CCC(Cc2ccc(F)cc2)CC1)c1ccc(Cl)cc1 (centres undefined) [ELIPRODIL]	> 20	> 20
Cc1c2ccncc2c(C)c2c1[nH]c1ccccc12 [ELLIPTECINE]	> 20	> 20
CCCCC1(CCCC)CN(c2ccccc2)c2cc(SC)c(OCC(=O)N[C@@H](C(=O)NCC(=O)O)c3ccccc3)cc2S(=O)(=O)C1 [ELOBIXIBAT]	> 20	> 20
c1cc2c(c(N3CCNCC3)c1)OCCO2 [ELTOPRAZINE]	> 20	> 20
O=C(Nc1ccc(Cl)c(S(=O)(=O)N2CCNCC2)c1O)Nc1cccc(F)c1Cl [ELUBRIXIN]	> 20	> 20
CCN(CC)CC(OC(=O)c1ccccc1)c1ccccc1 (centres undefined) [ELUCAINE]	> 20	> 20
Nc1nc(=O)n([C@@H]2C=C[C@H](CO)O2)cc1F [ELVUCITABINE]	> 20	> 20
CCCCCCCCCCCC1=C(O)C(=O)C=C(O)C1=O [EMBELIN]	> 20	> 20
CCOCCn1c(N2CCCN(C)CC2)nc2ccccc21 [EMEDASTINE]	> 20	> 20
CC[C@H]1CN2CCc3cc(OC)c(OC)cc3[C@@H]2C[C@@H]1C[C@H]1NCCc2cc(OC)c(OC)cc21 [EMETINE]	> 20	> 20
CCOCn1c(Cc2ccccc2)c(C(C)C)c(=O)[nH]c1=O [EMIVIRINE]	> 20	> 20
Cc1cc(O)c2c(c1)C(=O)c1cc(O)cc(O)c1C2=O [EMODIN]	> 20	> 20
CCc1nc(C)ccc1O [EMOXYPINE]	> 20	> 20
OC[C@H]1O[C@@H](c2ccc(Cl)c(Cc3ccc(O[C@H]4CCOC4)cc3)c2)[C@H](O)[C@@H](O)[C@@H]1O [EMPAGLIFLOZIN]	> 20	> 20
Nc1nc(=O)n([C@@H]2CS[C@H](CO)O2)cc1F [EMTRICITABINE]	> 20	> 20
C[C@H](N[C@@H](CCc1ccccc1)C(=O)O)C(=O)N1CCC[C@H]1C(=O)O [ENALAPRILAT ANHYDROUS]	> 20	> 20
CC(C)(O)CNc1nc(Nc2ccnc(C(F)(F)F)c2)nc(-c2cccc(C(F)(F)F)n2)n1 [ENASIDENIB]	> 20	> 20
COc1ccc(C(=O)Nc2ccccc2CCC2CCCCN2C)cc1 (centres undefined) [ENCAINIDE]	> 20	> 20
COc1ccccc1N1CCN(CC(O)COc2cc(OC)c(OC)c(OC)c2)CC1 (centres undefined) [ENCIPRAZINE]	> 20	> 20
CCOC(=O)N(Cc1ccccc1)C1CC1 [ENCYPRATE]	> 20	> 20
O=C(O)c1ccccc1NCCc1ccccc1 [ENFENAMIC ACID]	> 20	> 20
